US11141411B2, “Methods of treating neurological, metabolic, and other disorders using enantiopure deuterium-enriched pioglitazone” (Poxel SA, priority 2014, dated 2021)

Legend:
[1] = Pharmacokinetics in male C57BL/6 mice, oral gavage once a day for 5 days; conditions: day 5, d-S-pio or d-R-pio 15 mg/kg oral gavage daily; for t1/2 d-S: elimination half-life of analyte d-S-pio; for t1/2 h-R: elimination half-life of analyte h-R-pio; for t1/2 h-R / t1/2 h-S: h-rac-pio 30 mg/kg; for t1/2 h-S: elimination half-life of analyte h-S-pio
Procedure: Animals were then euthanized. Plasma was separated by centrifugation and stored at −80° C. until analyzed.
Concentrations were calculated by interpolation on standard curves generated from mouse plasma samples spiked with known concentrations of the pure analytes.

[2] = Body weight gain in male C57BL/6J mice on a standard diet; assay type: in vivo, mouse; conditions: twice daily oral gavage 11 days, overall daily dose h-rac-pio 30 mg/kg, d-S-pio 15 mg/kg, d-R-pio 15 mg/kg, vs. vehicle
Procedure: Male C57BL/6J mice (about 28 g body weight) were acclimated singly-housed for one week to a reverse light/dark cycle with free access to water and standard maintenance diet. Animals were then handled daily for one week followed by another 7 days of twice daily dosing with vehicle (0.5% methylcellulose in water) by oral gavage. […] Body weights were measured twice daily, prior to each dosing, to adjust individual dosing volumes to actual body weights.

db/db mice = test: db/db mouse model of type II diabetes, 10-day daily oral dosing; assay type: in vivo; conditions: daily oral gavage 10 days, h-rac-pio 30 mg/kg, vs. vehicle; for decrease of inflammatory biomarker IL-6 / decrease of inflammatory biomarker TNF-α: d-R-pio 20 mg/kg; for adiponectin: d-S-pio 20 mg/kg
Procedure: Body weights were measured throughout the study. Non-fasting blood glucose (10 μL by tail snip) was measured 4 hours prior to first dose, and animals were sorted and assigned to groups based on this measure. […] A terminal blood sample was collected for determination of serum levels of cholesterol, triglycerides, free fatty acids, adiponectin, serum amyloid A, and cytokines IL-6, TNF-α, and MCP-1, using standard analytical methods. Quantitative results were analyzed by statistical methods using, as appropriate, one- or two-way ANOVA or Kruskal-Wallis tests for differences followed by Sidak's, Dunnett's, or Dunn's post-test to determine differences vs. vehicle-treated control animals. All graphs were generated with GraphPad Prism version 6.0.2 (GraphPad Software, Inc., La Jolla, Calif.).

Structure (SMILES) | t1/2 d-S [1] | t1/2 h-R [1] | t1/2 h-S [1] | percent body weight difference versus day 1 body weight [2] | decrease of inflammatory biomarker IL-6 (db/db mice) | decrease of inflammatory biomarker TNF-α (db/db mice) | adiponectin (db/db mice) | insulin (db/db mice)
[2H][C@]1(Cc2ccc(OCCc3ccc(CC)cn3)cc2)SC(=O)NC1=O [d-R-pio, (R)-5-({p-[2-(5-ethyl-2-pyridyl)ethoxy]phenyl}methyl)-(5-^2H)-1,3-thiazolidine-2,4-dione] | 0.8 h | 2.5 h | 2.5 h | did not increase percent body weight difference over vehicle | trending | trending |  | 
[2H][C@@]1(Cc2ccc(OCCc3ccc(CC)cn3)cc2)SC(=O)NC1=O [d-S-pio, (S)-5-({p-[2-(5-Ethyl-2-pyridyl)ethoxy]phenyl}methyl)-(5-^2H)-1,3-thiazolidine-2,4-dione] | 2.3 h | 3.2 h | 3.1 h | statistically significant increase in percent body weight difference compared to dosing with vehicle |  |  | significantly increased adiponectin | 
CCc1ccc(CCOc2ccc(CC3SC(=O)NC3=O)cc2)nc1 (racemic) [h-rac-pio, rac-5-({p-[2-(5-Ethyl-2-pyridyl)ethoxy]phenyl}methyl)-1,3-thiazolidine-2,4-dione] |  |  |  | statistically significant increase in percent body weight difference compared to dosing with vehicle | trending | trending | significantly increased adiponectin | significantly decreased insulin
